Among the data in patent publication US5478946A, “Guanidino compounds as regulators of nitric oxide synthase” (Abbott Laboratories, priority 1993, dated 1995) are inhibition and IC50 values, retold here.

In assay [1] the target is T1, Type I NOS (rat brain cytosol) (Rattus norvegicus, UniProt P29476).
T1 construct: type I isozyme from rat brain cerebellum; from tissue; host or cells: rat brain (cytosol; cerebellum, phosphocellulose-purified)
Briefly: [3H]-Arginine to [3H]-Citrulline conversion, rat brain cytosol (Type I NOS). Format: biochemical. As to conditions: for IC50: read-out: Inhibition of [3H]-Citrulline Formation IC50, Rat Brain Cytosol. The text has this: (§1) The enzyme NO synthase produces EDRF/NO and citrulline from L-arginine (Bredt and Snyder, Proc. Nat'l. Acad. Sci. USA, 1989, 87: 682-5). The enzymatic generation of EDRF/NO is monitored by measuring the conversion of [^3 H]-L-arginine to [^3 H]-L-citrulline. An inhibitor of this specific enzymatic reaction lowers the conversion rate and, thus, the amount of [^3 H]-L-citrulline produced. Likewise, a compound acting as a substrate would compete with L-arginine and thereby lower the conversion rate.
(§2) The conversion of L-arginine to L-citrulline was assayed as reported previously (Bredt and Snyder, Proc. Nat'l Acad Sci USA, 1989, 87: 682-5) with minor modifications. Briefly, samples of partially purified NO synthase, 50-100 μg of protein or 20 μL of cytosol (alternatively cytosolic preparations from RAW 264.7 cells, a murine monocyte-macrophage cell line, induced for 16 hours with 10 μg/mL medium of Lipopolysaccharide (LPS), or partially purified (phosphocellulose column) type I isozyme from rat brain cerebellum, or partially purified isozyme III from bovine aortic endothelial cells (BAE cells)) were incubated for 20 minutes (3 minutes in the cases of purified enzyme preparations) at 25° C. in the presence of 10 μM L-[2,3-^3 H]arginine (55 Ci /mmol) (containing 34 nM (0.2 μCi)), 1 mM NADPH, and 2 Mm CaCl2 in a final volume of 100 μL. The reaction was stopped by adding 1 mL of stop buffer (2 mM EGTA, 2 mM EDTA 20 mM Hepes, pH 5.5). The total volume was then applied to a 1 mL Dowex AG 50 WX-8 column (Na^+ form, Bio-Rad) that had been pre-equilibrated with the stop buffer. L-[2,3-^3 H]Citrulline was eluted (2×) with 0.5 mL of stop buffer and radioactivity was determined by liquid scintillation counting.
(§3) The following Tables present data on the inhibition of [^3 H]-citrulline formation from [^3 H]-L-arginine by the compounds of the invention in various preparations representative of the isoforms of NOS, Types I, II, and III NOS as represented by rat brain cytosol, […] macrophage cell cytosol, and BAE homogenate preparation respectively.

In assay [2] the target is T2, Type II NOS (RAW macrophage cell cytosol) (Mus musculus, UniProt P29477).
T2 construct: cytosolic preparations from RAW 264.7 cells; endogenous in cells; host or cells: RAW 264.7 cells, LPS-induced for 16 hours
In words: [3H]-Arginine to [3H]-Citrulline conversion, RAW cell cytosol (Type II NOS). Conditions: for inhibition at 100 µM / IC50: LPS induced; for IC50: read-out: Inhibition of [3H]-Citrulline Formation IC50, RAW Cell cytosol. The assay is classed as biochemical, murine.
From the text: as §1, §2, §3

Assay [3] addresses T3, Type III NOS (BAE homogenate preparation) (Bos taurus, UniProt P29473).
T3 construct: partially purified isozyme III from bovine aortic endothelial cells (BAE cells); endogenous in cells; host or cells: bovine aortic endothelial (BAE) cells
Briefly: [3H]-Arginine to [3H]-Citrulline conversion, BAE homogenate preparation (Type III NOS). The assay is classed as biochemical, bovine. As to conditions: for IC50: read-out: Inhibition of [3H]-Citrulline Formation IC50, BAE Preparation.
From the text: as §1, §2, §3

[4] abbreviates: read-out: Percent Inhibition of [3H]-Citrulline Formation, Rat Brain Cytosol.
The mark [5] stands for this setting: read-out: Percent Inhibition of [3H]-Citrulline Formation, RAW Cell Cytosol.
The mark [6] stands for this setting: read-out: Percent Inhibition of [3H]-Citrulline Formation, BAE Preparation.

Turning to `CC(C)(C)OC(=O)N1[C@@H](/C=C/CNC(=N)N[N+](=O)[O-])COC1(C)C` [Example 1, 3-(1,1 -Dimethylethyl)-(S)-4-(3-N^G -nitroguanidinopropen-1, E-yl)-2,2-dimethyl-3-oxazolidinecarboxvlate], the inhibition at 100 µM in assay [1] (setting [4]) was determined as 6%; in assay [2] (setting [5]), 0%. Besides, the IC50 in assay [1], in assay [2] and in assay [3] was more than 100 µM in each case.

Regarding `N=C(NC/C=C/[C@H](N)CO)N[N+](=O)[O-]` [Example 2, N^G -Nitroguanidinyl-4(S)-amino-pent-2,E-ene-5-ol], the inhibition at 100 µM in assay [1] (setting [4]) worked out at 80%; in assay [2] (setting [5]), 14%. Moreover, the IC50 in assay [1] is 40 µM; in assay [2] it was more than 100 µM; in assay [3], 80 µM.

Take `CC(C)(C)OC(=O)N1[C@@H](/C=C/CNC(=N)N)COC1(C)C` [Example 3, 3-(1,1-Dimethylethyl)-(S)-4-(3-guanidinopropen-1,E-yl)-2,2-dimethyl-3-oxazolidinecarboxylate]: the inhibition at 100 µM was 35% in assay [1] (setting [4]) and 68% in assay [2] (setting [5]). In addition, the figures for the IC50 in assay [1], in assay [2] and in assay [3] were more than 100 µM, 40 µM and more than 100 µM, respectively.

In the case of `N=C(N)NC/C=C/[C@H](N)CO` [Example 4, 1-Guanidirlyl-4(S)-amino-pent-2,E-ene-5-ol], the results for the inhibition at 100 µM in assay [2] (setting [5]) and in assay [3] (setting [6]) were 50% and 22%, respectively. Further, the IC50 is 100 µM in assay [2] and more than 100 µM in assay [3].

Regarding `N=C(NN)NC/C=C/[C@H](N)CO` [Example 6, N^G -Aminoguanidinyl-4(S)-amino-pent-2,E-ene-5-ol], the IC50 in assay [1] is more than 30 µM; in assay [2], 22 µM; in assay [3], more than 30 µM. Moreover, the inhibition at 30 µM in assay [1] (tested at 30 μM, read-out: Percent Inhibition of [3H]-Citrulline Formation, Rat Brain Cytosol) is 0%; in assay [3] (tested at 30 μM, read-out: Percent Inhibition of [3H]-Citrulline Formation, BAE Preparation), 0%. Moreover, the inhibition at 10 µM in assay [2] (tested at 10 μM, read-out: Percent Inhibition of [3H]-Citrulline Formation, RAW Cell Cytosol) was found to be 46%.

For the molecule `CC(C)(C)OC(=O)N1[C@@H](/C=C/CNC(=N)NO)COC1(C)C` [Example 7, 3-(1,1-Dimethylethyl)-(S)-4-(3-N^G -hydroxyguanidinopropen-1,E-yl)-2.2-dimethyl-3-oxazolidinecarboxylate], the inhibition at 100 µM in assay [2] (setting [5]) amounted to 17%. In addition, in assay [2], the IC50 is more than 100 µM.

On to `N=C(NO)NC/C=C/[C@H](N)CO` [Example 8, N^G -Hydroxyguanidinyl-4(S)-amino-pent-2,E-ene-5-ol], for which the inhibition at 100 µM in assay [1] (setting [4]) was 23%; in assay [2] (setting [5]) it was 13%. In addition, the IC50 in assay [1] and in assay [2] was more than 100 µM each time.

As to `CNC(=N)NC/C=C/[C@H]1COC(C)(C)N1C(=O)OC(C)(C)C` [Example 9, 3-(1,1-Dimethylethyl)-(S)-4-(3-N^G -methylguanidinoorooen-1,E-yl)-2.2-dimethyl-3-oxazolidinecarboxylate], the values for the inhibition at 100 µM in assay [1] (setting [4]) and in assay [2] (setting [5]) were 51% and 47%, respectively. Besides, the figures for the IC50 in assay [1] and in assay [2] were 80 µM and 100 µM, respectively.

For `CNC(=N)NC/C=C/[C@H](N)CO` [Example 10, N^G -Methylguanidinyl-4(S)-Amino-pent-2 ,E-ene-5-ol], the figures for the inhibition at 100 µM in assay [1] (setting [4]), in assay [2] (setting [5]) and in assay [3] (setting [6]) were 74%, 43% and 40%, respectively. The IC50 in assay [1] was 30 µM; in assay [2], more than 100 µM; in assay [3], more than 100 µM.

For `CCNC(=N)NC/C=C/[C@H]1COC(C)(C)N1C(=O)OC(C)(C)C` [Example 11, 3-(1,1-Dimethylethyl)-(S)-4-(3-N^G -ethylguanidinopropen-1,E-yl)-2,2-dimethyl-3-oxazolidinecarboxylate], the inhibition at 100 µM in assay [1] (setting [4]) is 20%; in assay [2] (setting [5]), 41%. Further, the IC50 in assay [1] and in assay [2] was more than 100 µM in each case.

As for `CCNC(=N)NC/C=C/[C@H](N)CO` [Example 12, N^G Ethylguanidinyl-4(S)-Amino-pent-2,E-ene-5-ol], the inhibition at 100 µM in assay [1] (setting [4]) is 70%; in assay [2] (setting [5]), 8%; in assay [3] (setting [6]), 5%. Moreover, the IC50 in assay [1] was 30 µM; in assay [2] it was more than 100 µM; in assay [3], more than 100 µM.

As for `C/C(=C\[C@H]1COC(C)(C)N1C(=O)OC(C)(C)C)CNC(=N)N[N+](=O)[O-]` [Example 14, 3-(1,1-Dimethylethyl)-(S)-4-(3-nitroguanidino-2-methyl-propen-1,E-yl)-2,2-dimethyl-3-oxazolidinecarboxylate], the inhibition at 100 µM in assay [1] (setting [4]) and in assay [2] (setting [5]) was 0% in each case. The IC50 in assay [1], in assay [2] and in assay [3] was more than 100 µM each time.

Consider `C/C(=C\[C@H](N)CO)CNC(=N)N[N+](=O)[O-]` [Example 15, N^G -Nitroguanidinyl-4(S)-Amino-2-methyl-pent-2,E-ene-5-ol], for which the inhibition at 100 µM in assay [1] (setting [4]) was found to be 90%; in assay [2] (setting [5]), 66%; in assay [3] (setting [6]), 50%. Further, the IC50 in assay [1] came to 10 µM; in assay [2], 40 µM; in assay [3], 100 µM.

On to `CNC(=N)NC/C=C/[C@@H](CO)NC(=O)OC(C)(C)C` [Example 17, N^4, Boc-N^G -Methylguanidinyl-4(S)-Amino-pent-2,E-ene-5-ol], for which the inhibition at 100 µM in assay [1] (setting [4]) amounted to 18%; in assay [2] (setting [5]), 6%. The IC50 in assay [1] and in assay [2] was more than 100 µM in each case.

In the case of `CNC(=N)NC/C=C/[C@@H]1COC(C)(C)N1C(=O)OC(C)(C)C` [Example 18, 3-(1,1-Dimethylethyl)-(R)-4-(3-N^G -methylguanidinopropen-1,E-yl)-2,2-dimethyl-3-oxazolidinecarboxylate], the inhibition at 100 µM in assay [1] (setting [4]) amounted to 17%; in assay [2] (setting [5]) it was 9%. Besides, the IC50 in assay [1] and in assay [2] was more than 100 µM throughout.

With `CNC(=N)NC/C=C/[C@@H](N)CO` [Example 19, N-^G -Methylguanidinyl-4(R)-Amino-pent-2,E-ene,5-ol], the inhibition at 100 µM in assay [1] (setting [4]) was found to be 77%; in assay [2] (setting [5]), 27%; in assay [3] (setting [6]), 0%. The IC50 was 35 µM in assay [1], more than 100 µM in assay [2] and more than 100 µM in assay [3].

In the case of `C/C(=C\[C@H]1COC(C)(C)N1C(=O)OC(C)(C)C)CNC(=N)N` [Example 20, 3-(1,1-Dimethylethyl)-(S)-4-(3-guanidino-2-methyl-propen-1,E-yl)-2,2-dimethyl-3-oxazolidinecarboxylate], the inhibition at 100 µM in assay [1] (setting [4]) came out at 27%; in assay [2] (setting [5]) it was 45%. Besides, the IC50 in assay [1] is more than 100 µM; in assay [2], 100 µM.

As to `C/C(=C\[C@H](N)CO)CNC(=N)N` [Example 21, N^G -Guanidinyl-4(S)-Amino-2-methyl-pent-2,E-ene-5-ol], the figures for the inhibition at 100 µM in assay [1] (setting [4]), in assay [2] (setting [5]) and in assay [3] (setting [6]) were 86%, 94% and 50%, respectively. The IC50 in assay [1] is 20 µM; in assay [2], 30 µM; in assay [3], 100 µM.

`CC(C)(C)OC(=O)N1[C@@H](/C=C(/CNC(=N)N)Cc2ccccc2)COC1(C)C` [Example 24, 3-(1,1-Dimethylethyl)-(S)-4-(3,guanidino-2-benzyl-propen-1,E,yl)-2,2-dimethyl--oxazolidinecarboxylate]: the inhibition at 100 µM was found to be 35% in assay [1] (setting [4]) and 20% in assay [2] (setting [5]). Besides, the IC50 in assay [1] and in assay [2] was more than 100 µM throughout.
